Laboratory results from PubChem BioAssay (NCI).
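These data come from cells grown in 96-well plates and exposed to compound for 48 hours at five concentrations. GI50 marks 50% less growth. TGI: concentration producing complete growth inhibition.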

How the values were obtained:
Assay in all cases: growth of human tumour cells (NCI), 48 h
UO-31 renal = tested on: UO-31 renal
OVCAR-8 ovarian = tested on: OVCAR-8 ovarian
MALME-3M melanoma = tested on: MALME-3M melanoma
PC-3 prostate = tested on: PC-3 prostate
CCRF-CEM leukemia = tested on: CCRF-CEM leukemia
IGROV1 ovarian = tested on: IGROV1 ovarian
DU-145 prostate = tested on: DU-145 prostate
NCI-H460 lung = tested on: NCI-H460 lung
SW-620 colon = tested on: SW-620 colon
SK-MEL-2 melanoma = tested on: SK-MEL-2 melanoma

Row | Compound | GI50 (UO-31 renal) | TGI (UO-31 renal) | GI50 (OVCAR-8 ovarian) | TGI (OVCAR-8 ovarian) | GI50 (MALME-3M melanoma) | TGI (MALME-3M melanoma) | GI50 (PC-3 prostate) | TGI (PC-3 prostate) | GI50 (CCRF-CEM leukemia) | TGI (CCRF-CEM leukemia) | GI50 (IGROV1 ovarian) | TGI (IGROV1 ovarian) | GI50 (DU-145 prostate) | TGI (DU-145 prostate) | GI50 (NCI-H460 lung) | TGI (NCI-H460 lung) | GI50 (SW-620 colon) | TGI (SW-620 colon) | GI50 (SK-MEL-2 melanoma) | TGI (SK-MEL-2 melanoma)
1 | CS(=O)CCCCCN=C=S (centres undefined) | 4 µM | 17.2 µM | 4.93 µM | 22.1 µM | 4.12 µM | 18.6 µM | 11.6 µM | 25.6 µM | 4.1 µM | 16.3 µM | 4.88 µM | 21.6 µM | 2.81 µM | 10.6 µM | 2.53 µM | 6.64 µM | 4.1 µM | 15.9 µM | 3.43 µM | 14.7 µM
2 | COc1ccc(NC(=O)n2nc(N)c3ccccc32)cc1OC | 28.5 µM | > 100 µM | 39.7 µM | > 100 µM | > 100 µM | > 100 µM | 35.5 µM | > 100 µM | 36.7 µM | > 100 µM | 18.1 µM | 84 µM | 73.1 µM | > 100 µM | 34.5 µM | > 100 µM | > 100 µM | > 100 µM | 37.2 µM | > 100 µM
3 | ClC1=C(Cl)C(Cl)=C(Cl)C1=C/C=C/c1ccccc1 | 0.201 µM | 0.756 µM | 0.266 µM | 1.92 µM | 0.167 µM | 0.499 µM | 0.276 µM | 2.65 µM | 0.306 µM |  |  | 0.0455 µM | 0.42 µM | 1.32 µM | 0.326 µM | 2.3 µM | 0.299 µM | 0.869 µM | 0.256 µM | 0.678 µM
4 | NC(CSC(c1ccccc1)(c1ccccc1)c1ccc(Cl)cc1)C(=O)O (centres undefined) | 6.13 µM | > 83.4 µM | 0.412 µM | 44.8 µM | 1.97 µM | 39.6 µM | 0.342 µM | 32.6 µM | 0.386 µM | 40 µM | 0.355 µM | 34.1 µM | 0.307 µM | 0.863 µM | 0.342 µM | 12.9 µM | 0.19 µM | > 78.7 µM | 0.239 µM | 5.07 µM
5 | COc1cccc(C2C(C#N)=C(N)Oc3cc(N)ccc32)c1 (centres undefined) | 0.858 µM | > 100 µM | 0.649 µM | > 60.9 µM | 0.632 µM | > 100 µM | 0.509 µM | > 100 µM | 0.32 µM |  | 0.854 µM | > 100 µM | 0.71 µM | 34 µM | 0.368 µM | > 87 µM | 0.312 µM | > 100 µM | 0.397 µM | > 100 µM
6 | CN(C)c1ccc(/C=C(/NC(=O)c2ccccc2)c2nc3ccc(Cl)cc3[nH]2)cc1 |  | > 100 µM |  | > 100 µM |  | > 82.9 µM | 29.2 µM | > 100 µM |  | > 84 µM |  | > 100 µM | 71.5 µM | > 100 µM |  | > 100 µM |  | > 60.5 µM |  | 99.4 µM
7 | COc1ccc(/C(Cl)=C(\C=O)c2ccc([N+](=O)[O-])cc2)cc1OC |  | 28.9 µM |  | > 86 µM |  | 41 µM |  | 48.1 µM |  | > 24.7 µM |  | 38.6 µM |  | > 100 µM |  | 34 µM |  | 28.1 µM |  | > 77.1 µM
8 | CCOC(=O)c1sc2nc3sc(N=Nc4ccc(Cl)cc4)c(O)n3c(=S)c2c1C | 53.6 µM | > 100 µM | 29.4 µM | 95.6 µM | 34.9 µM | 95 µM | 21.3 µM | > 100 µM | 32.2 µM | > 100 µM | > 100 µM | > 100 µM | 31.2 µM | > 100 µM | 25.9 µM | > 100 µM | 35.4 µM | > 100 µM | > 100 µM | > 100 µM
9 | CCCCCCCC/C=C/CCCCCCCC1=NCC[N+]1(CCO)CCO | 3.97 µM | 19.7 µM | 2.66 µM | 10 µM | 3.19 µM | 12.4 µM | 1.97 µM | 6.17 µM | 1.6 µM | 4.46 µM | 1.59 µM | 3.35 µM | 4.41 µM | 16.2 µM | 1.69 µM | 3.39 µM | 1.82 µM | 4.38 µM | 2.69 µM | 6.01 µM
10 | Cc1cc2cc3cc(C)c(N(C)C)cc3nc2cc1N(C)C | 6 µM | > 100 µM | 2.83 µM | 28.1 µM | 3.53 µM | 19 µM | 2.4 µM | 39.9 µM | 8.99 µM | > 100 µM | 4.96 µM | > 100 µM | 3.46 µM | 25.8 µM | 2.37 µM | 11.5 µM | 3.1 µM | 26.6 µM | 4.02 µM | 75.7 µM
